Assay results: publication PMC9065575, “Synthesis, computational studies, antimycobacterial and antibacterial properties of pyrazinoic acid–isoniazid hybrid conjugates” (RSC Advances, 2019)
Where “and” joins values, the source holds several entries; their conditions need not be identical. Equal entries are not always repeated. Where two headings read alike, the source gives them in different places.

What was measured:
Enterococcus faecalis = assay: Aerobic antibacterial MIC, standard dilution technique; assay type: cell-based; conditions: clinical isolate, read-out: Minimum inhibitory concentration (MIC) Enterococcus faecalis
Excerpt: (§1) Antibacterial properties were investigated for the synthesized compounds against a variety of Gram-positive (Staphylococcus aureus, Enterococcus faecalis) and Gram-negative (Klebsiella pneumonia, Proteus vulgaris, Pseudomonas aeruginosa) clinical isolate bacteria utilizing the standard technique.[21]

Klebsiella pneumoniae = assay: as above; assay type: cell-based; conditions: clinical isolate, read-out: Minimum inhibitory concentration (MIC) Klebsiella pneumoniae
Excerpt: as §1

Proteus vulgaris = assay: as above; assay type: cell-based; conditions: clinical isolate, read-out: Minimum inhibitory concentration (MIC) Proteus vulgaris
Excerpt: as §1

Pseudomonas aeruginosa = assay: as above; assay type: cell-based; conditions: clinical isolate, read-out: Minimum inhibitory concentration (MIC) Pseudomonas aeruginosa
Excerpt: as §1

Staphylococcus aureus = assay: as above; assay type: cell-based; conditions: clinical isolate, read-out: Minimum inhibitory concentration (MIC) Staphylococcus aureus
Excerpt: as §1

Mycobacterium marinum = assay: microbe, parasite or virus in culture; assay type: cell-based; conditions: clinical isolate, read-out: Minimum inhibitory concentration (MIC) M. marinum
Mycobacterium fortuitum = assay: microbe, parasite or virus in culture; assay type: cell-based; conditions: Mycolicibacterium fortuitum
Mycobacterium bovis = assay: microbe, parasite or virus in culture; assay type: cell-based; conditions: for MIC: Mycobacterium tuberculosis variant bovis, read-out: Minimum inhibitory concentration (MIC) M. bovis; for potency relative to the standard references (M. bovis MIC): vs INH and PZA
[1] = system: M. tuberculosis Erdman strain expressing luciferase; assay: microbe, parasite or virus in culture; assay type: cell-based, Mycobacterium tuberculosis; conditions: for inhibition at 30 µg/mL: Mycobacterium tuberculosis, ERDMAN, 168 h, read-out: Observed % growth inhibition at 30 µg/mL
[2] = system: RPE1 (normal human immortalized retinal epithelial) cell line; assay: Antiproliferative properties by MTT technique; assay type: cell-based; conditions: RPE1 cells, 100 μM
Experimental: Antiproliferative properties of the synthesized compounds were screened against RPE1 (normal human immortalized retinal epithelial) cell line to determine the toxicity/selectivity towards normal cell by the standard MTT technique.[23]
Antiproliferative properties of the synthesized compounds were tested against RPE1 (normal human immortalized retinal epithelial) cell line at 100 μM to determine the toxicity/selectivity towards normal cell by the standard MTT technique.[23]

[3] = Enterococcus faecalis, value in parentheses
[4] = clinical isolate, observed MIC, read-out: Minimum inhibitory concentration (MIC) M. fortuitum
[5] = clinical isolate, read-out: Minimum inhibitory concentration (MIC) M. fortuitum
[6] = 30 μg mL^−1, pH 7.0, 7 days, vs untreated controls
[7] = M. fortuitum, observed values listed with the BMLR-QSAR model, read-out: Observed MIC (Table S6)

Row | Compound | MIC (Enterococcus faecalis; Enterococcus faecalis) | MIC (Enterococcus faecalis; [3]) | MIC (Klebsiella pneumoniae) | MIC (Klebsiella pneumoniae; value in parentheses) | MIC (Proteus vulgaris) | MIC (Proteus vulgaris; value in parentheses) | MIC (Pseudomonas aeruginosa) | MIC (Pseudomonas aeruginosa; value in parentheses) | MIC (Staphylococcus aureus) | MIC (Staphylococcus aureus; value in parentheses) | also measured
1 | CC(C)C[C@H](NC(=O)c1cnccn1)C(=O)O [C00004] | 0.03 µg/mL | 0.13 µM | 64 µg/mL | 270 µM | 8 µg/mL | 33.7 µM | 0.03 µg/mL | 0.13 µM | 1020 µg/mL | 4320 µM | –
2 | CC[C@@H](C)[C@H](NC(=O)c1cnccn1)C(=O)O [C00006] | 0.03 µg/mL | 0.13 µM | 8 µg/mL | 33.7 µM | 0.06 µg/mL | 0.25 µM | 0.12 µg/mL | 0.51 µM | 16 µg/mL | 67.4 µM | –
3 | O=C(NC(Cc1ccccc1)C(=O)O)c1cnccn1 (stereo not drawn) [C00009] | 0.03 µg/mL | 0.11 µM | 16 µg/mL | 59 µM | 0.06 µg/mL | 0.22 µM | 16 µg/mL | 59 µM | 16 µg/mL | 59 µM | –
4 | NC(=O)c1cnccn1 [C00001] | 0.12 µg/mL | 0.97 µM | 64 µg/mL | 520 µM | 8 µg/mL | 65 µM | 4 µg/mL | 32.5 µM | 1020 µg/mL | 8320 µM | –
5 | NNC(=O)c1ccncc1 [C00002] | 16 µg/mL | 117 µM | 8 µg/mL | 58.3 µM | 64 µg/mL | 467 µM | 64 µg/mL | 467 µM | 64 µg/mL | 467 µM | –
6 | CC(C)C[C@H](NC(=O)c1cnccn1)C(=O)NNC(=O)c1ccncc1 [C00011] | 0.03 µg/mL | 0.08 µM | 4 µg/mL | 11.2 µM | 0.06 µg/mL | 0.17 µM | 64 µg/mL | 180 µM | 2 µg/mL | 5.61 µM | –
7 | O=C(N[C@@H](Cc1ccccc1)C(=O)O)c1cnccn1 [C00008] | 0.12 µg/mL | 0.44 µM | 64 µg/mL | 236 µM | 0.06 µg/mL | 0.22 µM | 0.12 µg/mL | 0.44 µM | 64 µg/mL | 236 µM | –
8 | O=C(NNC(=O)C(Cc1ccccc1)NC(=O)c1cnccn1)c1ccncc1 (stereo not drawn) [C00016] | 0.03 µg/mL | 0.08 µM | 8 µg/mL | 20.5 µM | 16 µg/mL | 41 µM | 32 µg/mL | 82 µM | 16 µg/mL | 41 µM | –
9 | NNC(=O)c1ccncc1 [INH, isoniazid] | – | – | – | – | – | – | – | – | – | – | MIC (Mycobacterium marinum; observed MIC): 72.9 µM; MIC (Mycobacterium marinum): 10 µg/mL; MIC (Mycobacterium fortuitum; [4]): 146 µM; MIC (Mycobacterium fortuitum; [5]): 20 µg/mL; MIC (Mycobacterium bovis): 146 µM and 20 µg/mL; inhibition at 30 µg/mL [1, 6]: > 70%
10 | O=C(NNC(=O)[C@H](Cc1c[nH]c2ccccc12)NC(=O)c1cnccn1)c1ccncc1 [C00017] | 0.03 µg/mL | 0.07 µM | 4 µg/mL | 9.31 µM | 0.06 µg/mL | 0.14 µM | 0.12 µg/mL | 0.28 µM | 16 µg/mL | 37.3 µM | –
11 | CSCC[C@H](NC(=O)c1cnccn1)C(=O)NNC(=O)c1ccncc1 [C00014] | 0.03 µg/mL | 0.08 µM | 4 µg/mL | 10.7 µM | 0.06 µg/mL | 0.16 µM | 0.12 µg/mL | 0.32 µM | 64 µg/mL | 171 µM | –
12 | O=C(NNC(=O)c1ccncc1)c1ccncc1 [compound 16, N′-Isonicotinoylisonicotinohydrazide] | – | 66 µM | – | 16.5 µM | – | 0.12 µM | – | – | – | 16.5 µM | MIC (Mycobacterium marinum; observed MIC): 82.6 µM; MIC (Mycobacterium marinum): 20 µg/mL; MIC (Mycobacterium fortuitum; [7]): 82600 µM; MIC (Mycobacterium fortuitum; [4]): 82.6 µM; MIC (Mycobacterium fortuitum; [5]): 20 µg/mL; MIC (Mycobacterium bovis): 82.6 µM and 20 µg/mL; potency relative to the standard references (M. bovis MIC) (Mycobacterium bovis): 1.8–2.0 folds; inhibition at 30 µg/mL [1, 6]: 78.1%; Percentage of cell proliferation ± SD [2]: 83.5 ± 7.4%
13 | CC(C)[C@H](NC(=O)c1cnccn1)C(=O)NNC(=O)c1ccncc1 [C00012] | 0.12 µg/mL | – | 8 µg/mL | 23.4 µM | 0.06 µg/mL | 0.18 µM | 0.12 µg/mL | 0.35 µM | 16 µg/mL | 46.7 µM | MIC (Enterococcus faecalis; value in parentheses): 0.35 µM
14 | O=C(NNC(=O)c1cnccn1)c1ccncc1 [C00018] | 16 µg/mL | – | 8 µg/mL | – | 64 µg/mL | – | 0.03 µg/mL | 0.12 µM | 8 µg/mL | – | –
15 | O=C(NNC(=O)c1cnccn1)c1ccncc1 [compound 13, N′-Isonicotinoylpyrazine-2-carbohydrazide] | – | 65.8 µM | – | 32.9 µM | – | 263 µM | – | – | – | 32.9 µM | MIC (Mycobacterium marinum; observed MIC): 41.1 µM; MIC (Mycobacterium marinum): 10 µg/mL; MIC (Mycobacterium fortuitum; [7]): 41100 µM; MIC (Mycobacterium fortuitum; [4]): 41.1 µM; MIC (Mycobacterium fortuitum; [5]): 10 µg/mL; MIC (Mycobacterium bovis): 82.2 µM and 20 µg/mL; potency relative to the standard references (M. bovis MIC) (Mycobacterium bovis): 1.8–2.0 folds; growth inhibition at 3 μg mL^−1 ([1]; 3 μg mL^−1, pH 7.0, compared with INH (>70% at 30 μg mL^−1)): same growth inhibition; inhibition at 30 µg/mL [1, 6]: 90.1%; Percentage of cell proliferation ± SD [2]: 88.2 ± 5.1%
16 | O=C(N[C@@H](Cc1ccccc1)C(=O)O)c1cnccn1 [10e, (Pyrazine-2-carbonyl)-L-phenylalanine] | – | – | – | – | – | – | – | – | – | – | MIC (Mycobacterium marinum; observed MIC): > 73.7 µM; MIC (Mycobacterium marinum): > 20 µg/mL; MIC (Mycobacterium fortuitum; [4]): > 73.7 µM; MIC (Mycobacterium fortuitum; [5]): > 20 µg/mL; MIC (Mycobacterium bovis): > 20 µg/mL and > 73.7 µM; inhibition at 30 µg/mL [1, 6]: 60.4%; Percentage of cell proliferation ± SD [2]: 90.4 ± 3.3%
17 | CC[C@H](C)[C@H](NC(=O)c1cnccn1)C(=O)NNC(=O)c1ccncc1 [C00013] | 0.03 µg/mL | 0.08 µM | 8 µg/mL | 22.4 µM | 0.06 µg/mL | 0.17 µM | 0.12 µg/mL | 0.34 µM | 16 µg/mL | 44.9 µM | –
18 | CC(C)[C@H](NC(=O)c1cnccn1)C(=O)O [C00005] | 0.03 µg/mL | – | 0.03 µg/mL | 0.13 µM | 0.06 µg/mL | 0.27 µM | 4 µg/mL | 17.9 µM | 512 µg/mL | 2290 µM | –
19 | CSCC[C@H](NC(=O)c1cnccn1)C(=O)O [C00007] | 0.03 µg/mL | 0.12 µM | 64 µg/mL | 251 µM | 0.06 µg/mL | 0.24 µM | 0.12 µg/mL | 0.47 µM | 16 µg/mL | 62.7 µM | –
20 | NC(=O)c1cnccn1 [PZA, pyrazinamide, reference compound] | – | – | – | – | – | – | – | – | – | – | MIC (Mycobacterium marinum; observed MIC): 81.2 µM; MIC (Mycobacterium marinum): 10 µg/mL; MIC (Mycobacterium fortuitum; [7]): 81200 µM; MIC (Mycobacterium fortuitum; [4]): 81.2 µM; MIC (Mycobacterium fortuitum; [5]): 10 µg/mL; MIC (Mycobacterium bovis): 162 µM and 20 µg/mL; Observed % growth inhibition at 30 µg/mL [1, 6]: not observed
21 | O=C(NC(Cc1ccccc1)C(=O)O)c1cnccn1 (racemic) [10f, (Pyrazine-2-carbonyl)-DL-phenylalanine] | – | – | – | – | – | – | – | – | – | – | MIC (Mycobacterium marinum; observed MIC): 73.7 µM; MIC (Mycobacterium marinum): 20 µg/mL; MIC (Mycobacterium fortuitum; [4]): > 73.7 µM; MIC (Mycobacterium fortuitum; [5]): > 20 µg/mL; MIC (Mycobacterium bovis): > 20 µg/mL and > 73.7 µM; Percentage of cell proliferation ± SD [2]: 86.5 ± 4.2%
22 | CSCC[C@H](NC(=O)c1cnccn1)C(=O)NNC(=O)c1ccncc1 [12d, (S)-N-(1-(2-Isonicotinoylhydrazineyl)-4-(methylthio)-1-oxobutan-2-yl)pyrazine-2-carboxamide] | – | – | – | – | – | – | – | – | – | – | MIC (Mycobacterium marinum; observed MIC): 26.7 µM; MIC (Mycobacterium marinum): 10 µg/mL; MIC (Mycobacterium fortuitum; [7]): 53400 µM; MIC (Mycobacterium fortuitum; [4]): 53.4 µM; MIC (Mycobacterium fortuitum; [5]): 20 µg/mL; MIC (Mycobacterium bovis): > 20 µg/mL and > 53.4 µM; melting point: 145 to 147 °C
23 | O=C(NNC(=O)[C@H](Cc1ccccc1)NC(=O)c1cnccn1)c1ccncc1 [C00015] | 0.12 µg/mL | 0.31 µM | 8 µg/mL | 20.5 µM | 0.06 µg/mL | 0.15 µM | 0.12 µg/mL | 0.31 µM | 16 µg/mL | 41 µM | –
24 | O=C(N[C@@H](Cc1c[nH]c2ccccc12)C(=O)O)c1cnccn1 [C00010] | 0.03 µg/mL | 0.1 µM | 64 µg/mL | 206 µM | 0.06 µg/mL | 0.19 µM | 0.12 µg/mL | 0.39 µM | 64 µg/mL | 206 µM | –
25 | O=C(NNC(=O)c1ccncc1)c1ccncc1 [C00019] | 16 µg/mL | – | 4 µg/mL | – | 0.03 µg/mL | – | 0.06 µg/mL | 0.25 µM | 4 µg/mL | – | –
